Experimental data: patent US20260078144A1, “ACTIVE PEPTIDE, AND COMPOSITION AND USE THEREOF” (WINKEY TECHNOLOGY USA INC, priority 2023, published 2026)

Experiments:
Format in all cases: cell-based
[1] = system: Human skin fibroblasts (HSF); assay: Collagen content assay (collagen I ELISA, UV photoaging model); details: 100 ppm, UV-irradiated HSF, 48 h, FIG. 10
Experimental: (§1) Human skin fibroblasts (HSF) were purchased from the Shanghai Cell Bank of China Center for Type Culture Collection under the Chinese Academy of Sciences.
Polypeptide group: Palmitoyl pentapeptide-4 (Palm-Lys-Thr-Thr-Lys-Ser-OH), peptide (26), peptide (32), peptide (33), peptide (39), and peptide (49), all at a test concentration of 100 ppm;
HSF cells in good exponential growth phase were taken. A 0.25% trypsin digestion solution was added so that digestion allowed the adherent cells to fall off, counting 1 to 4×10^6 cells/mL, which were prepared into a cell suspension.
The cell suspension was inoculated into a 6-well plate at 10^5 cells/well. A UV photoaging model was established when the cells reached approximately 80% confluence. In the blank control group, 200 μL of PBS was added, supplemented with the culture medium to 800 μL, while no UV irradiation was performed. For the UV group and the polypeptide groups, a proper amount of PBS was added to wash the culture repeatedly until colorless, followed by adding 200 μL of PBS and irradiating under an 80 mJ/cm^2 UV light. The distance between the light source and the culture bottle was 15 cm. After irradiation, the PBS was removed. In the UV group, a PBS solution and culture medium were added to 800 μL; in the polypeptide groups, the culture medium and the samples diluted in a certain ratio were added to 800 μL. The blank control group, the UV group, and the polypeptide groups were further incubated in a 5% CO2 incubator at 37° C. for 48 h.
After completion of the culture, the cells were scraped off using a cell scraper, mixed by pipetting, and the cell protein was extracted using RIPA and quantified to 1 mg/mL with BCA. The procedure was performed according to the operation instructions of collagen I ELISA. The OD value of each well was measured in sequence at 450 nm using a microplate reader within 15 min.
Collagen is the most abundant protein found in connective tissue, and provides plumpness and firmness to the skin. […] In this experiment, UV-irradiated cells were treated with test samples, and the content of collagen I in corresponding cells was detected to determine whether the peptide of the present invention can promote collagen synthesis.

[2] = system: Human keratinocytes (HaCaT); assay: Cell scratch assay; details: 24 h, FIG. 8; for order of effects on promoting the proliferation and migration of HaCaT cells: 50-100 ppm
Experimental: (§2) Human keratinocytes (HaCaT) were purchased from the Kunming Cell Bank of China Center for Type Culture Collection under the Chinese Academy of Sciences.
Polypeptide group: Peptide (26), peptide (33), peptide (39) and peptide (49). The test concentrations of all the above samples were 50 ppm and 100 ppm.
Positive control group: 50 U/mL of EGF.
A bottle of HaCaT cells in good exponential growth phase was taken. A 0.25% trypsin digestion solution was added so that digestion allowed the adherent cells to fall off, counting 1 to 4×10^5 cells/mL, which were prepared into a cell suspension.
The cells were inoculated into a 24-well plate at a density of 150,000 cells/well, with 2 mL cell suspension per well. After the cells attached to the wall and grew to 100% confluence, the culture medium was replaced with a medium containing 0.5%-1% fetal bovine serum to maintain the cells for 24 h for synchronization. A sterilized pipette tip was used to scratch a wound, the detached cells were washed off with PBS, and the samples to be tested were added. The incubation was continued in the 5% CO2 incubator at 37° C., and the migration of cells was observed under an optical microscope after 24 h.
The scratch migration experiment of cells can reflect the proliferation and repair ability of cells. A scratch assay was performed on the basis of HaCaT cells growing all over the dish, and the migration of cells was observed under an optical microscope 24 h after administration of the samples to evaluate the effect of the test samples on cell proliferation and migration.

[3] = system: Human keratinocytes (HaCaT); assay: Photoaging experiment (UV-irradiated HaCaT, MTT); details: 80 mJ/cm^2 UV, 24 h, compared with the UV group, FIG. 7
Experimental: as §2
Polypeptide group: Peptide (26), peptide (33), peptide (39) and peptide (49). The test concentrations of all the above samples were 1 ppm, 10 ppm, 50 ppm, 100 ppm, and 200 ppm.
(§3) Cells in good exponential growth phase were taken. A 0.25% trypsin digestion solution was added so that digestion allowed the adherent cells to fall off, counting 1 to 4×10^5 cells/mL, which were prepared into a cell suspension.
The cell suspension was properly diluted and inoculated into a 96-well plate at 10,000 cells/well. When the cells reached approximately 80% confluence, a UV photoaging model was established. In the blank control group, 50 μL of PBS was added, and supplemented with the culture medium to 200 μL, while no UV irradiation was performed. For the UV group and the polypeptide groups, a proper amount of PBS was added to wash the culture repeatedly until colorless, followed by adding 50 μL of PBS and irradiating under an 80 mJ/cm^2 UV light. The distance between the light source and the culture bottle was 15 cm. After irradiation, the PBS was removed. In the UV group, a PBS solution and the culture medium were added to 200 μL; in the polypeptide groups, the culture medium and the samples diluted in a certain ratio were added to 200 μL. The blank control group, the UV group, and the polypeptide groups were further incubated in a 5% CO2 incubator at 37° C. for 24 h.
Then 22 μL of 5 mg/mL MTT was added to each well and the incubation was continued in the 5% CO2 incubator at 37° C. for 4 h. The original solution was removed and 150 µL/well of DMSO was added. After shaking the plate on a plate shaker for 5 min, a microplate reader was used to read the reference OD values at wavelengths of 490 nm and 630 nm.
Skin aging is affected by endogenous and exogenous factors, such as genetics, environmental exposure, UV irradiation, hormonal changes, etc. The accumulation of these factors, especially exposure to UV irradiation, leads to changes in structure, function and appearance of the skin. In this experiment, 80 mJ/cm^2 UV energy was selected for radiation to establish a skin photoaging model.

[4] = system: Human keratinocytes (HaCaT); assay: Determination of hyaluronic acid content; details: 10 ppm, 48 h, compared with blank control group, FIG. 9
Experimental: as §2
Polypeptide group: Peptide (26), peptide (33), peptide (39) and peptide (49). The test concentrations of all the above samples were 10 ppm.
A bottle of HaCaT cells in good exponential growth phase was taken. A 0.25% trypsin digestion solution was added so that digestion allowed the adherent cells to fall off, counting 1 to 4×10^6 cells/mL, which were prepared into a cell suspension.
The cells were inoculated into a 6-well plate at 10^5 cells/well, and grouped when the cells reached approximately 80% confluence. […]
After completion of the culture, cells were scraped off using a cell scraper, and 200 μL of RIPA lysis buffer was added to extract proteins. […] The total protein concentration was quantified to 1 mg/mL using the BCA method. […] The OD value of each well was measured in sequence at 570 nm using a microplate reader within 15 min.
Hyaluronic acid is one of the main matrix ingredients of the human skin epidermis and an important component of the skin barrier. […] This experiment measured the effect of the peptide of the present invention on the hyaluronic acid content to determine whether the peptide of the invention can increase the hyaluronic acid content and thus play a role in moisturizing and anti-aging repair.

[5] = system: Human skin fibroblasts (HSF); assay: Cell proliferation assay (MTT) on HSF cells; details: 72 h, FIG. 6
Text: as §1
Polypeptide group: Peptide (26), peptide (33), peptide (39) and peptide (49). The test concentrations of all the above samples were 1 ppm, 10 ppm, 50 ppm, 100 ppm, 200 ppm, 500 ppm and 1000 ppm.
Blank control group: PBS.
Positive control group: 2% DMSO.
as §3
The cell suspension was inoculated into a 96-well plate with 200 µL/well, and cultured in a constant-temperature CO2 incubator for 24 h. […]
20 μL of 5 mg/mL MTT was added to each well and the incubation was continued in the 5% CO2 incubator at 37° C. for 4 h. […] After shaking the plate on a plate shaker for 5 min, a microplate reader was used to determine the OD value of each well at a wavelength of 570 nm, and the cell viability was calculated.
The MTT assay is a method of detecting cell survival and growth. The measured OD values are directly proportional to cell viability. […]

Row | Compound | collagen content (collagen I) compared with palmitoyl pentapeptide-4 [1] | order of effects on promoting the proliferation and migration of HaCaT cells [2] | activity of photoaged HaCaT keratinocytes ([3]; range of 1-200 ppm) | other results
1 | Ac-Lys-Pro-Leu-Trp-His-Val-NH2 (Ac-KPLWHV-NH2) [peptide (33)] | more significantly increase the collagen content | peptide (33)>peptide (26)>peptide (49)>peptide (39) | improve the activity of HaCaT keratinocytes to different degrees | –
2 | EGF: Positive control group: 50 U/mL of EGF [reference compound] | – | – | – | cell proliferation and migration of HaCaT cells (positive control) ([2]; 50 U/mL, compared with blank control group): obvious cell proliferation and migration
3 | Ac-Lys-Pro-Leu-Trp-His-Val-OH (Ac-KPLWHV-OH) [peptide (32)] | more significantly increase the collagen content | – | – | –
4 | Ac-Lys-Arg-Tyr-Gly-Trp-NH2 (Ac-KRYGW-NH2) [peptide (49)] | more significantly increase the collagen content | peptide (33)>peptide (26)>peptide (49)>peptide (39) | improve the activity of HaCaT keratinocytes to different degrees | hyaluronic acid content [4]: more superior technical effects
5 | Ac-Tyr-Gly-Trp-Lys-Lys-Gln-NH2 (Ac-YGWKKQ-NH2) [peptide (26)] | more significantly increase the collagen content | peptide (33)>peptide (26)>peptide (49)>peptide (39) | improve the activity of HaCaT keratinocytes to different degrees | hyaluronic acid content [4]: more superior technical effects
6 | Ac-Lys-Lys-Trp-Val-Thr-His-NH2 (Ac-KKWVTH-NH2) [peptide (39)] | more significantly increase the collagen content | peptide (33)>peptide (26)>peptide (49)>peptide (39) | – | HSF cell activity / proliferation of HSF fibroblasts ([5]; low concentration of 1-10 ppm): significantly increase cell activity and promote the proliferation of HSF fibroblasts; activity of photoaged HaCaT keratinocytes ([3]; at 1 ppm, 100 ppm and 200 ppm): improve cell activity
7 | C[S+](C)[O-] [DMSO, dimethyl sulfoxide, reference compound] | – | – | – | HSF cell viability (positive control) ([5]; 2% DMSO, compared with blank control group): toxic effect on HSF cells
